Test results reported in patent US8063048B2, “Acetylenyl-pyrazolo-pyrimidine derivatives” (Hoffmann-La Roche Inc., priority 2005, dated 2011).

| melting point | Compound |
| --- | --- |
| 286 °C | NC(=O)c1ccc(C#Cc2cnc3c(C(F)(F)F)cc(-c4ccc(C(F)(F)F)cc4)cn23)cc1 [Example 203, 4-[8-Trifluoromethyl-6-(4-trifluoromethyl-phenyl)-imidazo[1,2-a]pyridin-3-ylethynyl]-benzamide] |
| 137 °C | O=S(=O)(c1ccc(C#Cc2cnn3c(C(F)(F)F)cc(-c4ccc(C(F)(F)F)cc4)nc23)s1)N(CCO)CCO [Example 162, 5-[7-Trifluoromethyl-5-(4-trifluoromethyl-phenyl)-pyrazolo[1,5-a]pyrimidin-3-ylethynyl]-thiophene-2-sulfonic acid bis-(2-hydroxy-ethyl)-amide] |
| 144 to 145 °C | FC(F)(F)c1ccc(-c2cc(C(F)(F)F)n3ncc(C#Cc4ccccc4)c3n2)cc1 [Example 62, 3-Phenylethynyl-7-trifluoromethyl-5-(4-trifluoromethyl-phenyl)-pyrazolo[1,5-a]pyrimidine] |
| 240 °C | NS(=O)(=O)c1cccc(C#Cc2cnc3c(C(F)(F)F)cc(-c4ccc(C(F)(F)F)cc4)cn23)c1 [Example 194, 3-[8-Trifluoromethyl-6-(4-trifluoromethyl-phenyl)-imidazo[1,2-a]pyridin-3-ylethynyl]-benzenesulfonamide] |
| 220 to 223 °C | CC(C)(CO)NS(=O)(=O)c1cnc(C#Cc2cnn3c(C(F)(F)F)cc(-c4ccc(Cl)c(Cl)c4)nc23)s1 [Example 90, 2-[5-(3,4-Dichloro-phenyl)-7-trifluoromethyl-pyrazolo[1,5-a]pyrimidin-3-ylethynyl]-thiazole-5-sulfonic acid (2-hydroxy-1,1-dimethyl-ethyl)-amide] |
| 177 °C | OCc1cccc(C#Cc2cnn3c(C(F)(F)F)cc(-c4ccc(C(F)(F)F)cc4)nc23)c1 [Example 204, {3-[7-Trifluoromethyl-5-(4-trifluoromethyl-phenyl)-pyrazolo[1,5-a]pyrimidin-3-ylethynyl]-phenyl}-methanol] |
| 294 °C | Nc1ncc(C#Cc2ncn3c(C(F)(F)F)cc(-c4ccc(C(F)(F)F)cc4)nc23)cn1 [Example 285, 5-[4-Trifluoromethyl-2-(4-trifluoromethyl-phenyl)-imidazo[1,5-a]pyrimidin-8-ylethynyl]-pyrimidin-2-ylamine] |
| 276 to 277 °C | NS(=O)(=O)c1cncc(C#Cc2cnn3c(C4CC4)cc(-c4ccc(C(F)(F)F)cc4)nc23)c1 [Example 79, 5-[7-Cyclopropyl-5-(4-trifluoromethyl-phenyl)-pyrazolo[1,5-a]pyrimidin-3-ylethynyl]-pyridine-3-sulfonic acid amide] |
| 209 to 211 °C | CCOc1cc(-c2cc(C(F)(F)F)n3ncc(C#Cc4ncc(S(=O)(=O)NC(C)(C)CO)s4)c3n2)ccc1C(F)(F)F [Example 51, 2-[5-(3-Ethoxy-4-trifluoromethyl-phenyl)-7-trifluoromethyl-pyrazolo[1,5-a]pyrimidin-3-ylethynyl]-thiazole-5-sulfonic acid (2-hydroxy-1,1-dimethyl-ethyl)-amide] |
| 270 °C | Cc1cc(-c2cc(C(F)F)n3ncc(C#Cc4cc(S(N)(=O)=O)c(F)cc4F)c3n2)ccc1Cl [Example 174, 5-[5-(4-Chloro-3-methyl-phenyl)-7-difluoromethyl-pyrazolo[1,5-a]pyrimidin-3-ylethynyl]-2,4-difluoro-benzenesulfonamide] |
| 113 to 115 °C | O=S(=O)(NCCO)c1cccc(C#Cc2cnn3c(C(F)F)cc(-c4ccc(C(F)(F)F)cc4)nc23)c1 [Example 147, 3-[7-Difluoromethyl-5-(4-trifluoromethyl-phenyl)-pyrazolo[1,5-a]pyrimidin-3-ylethynyl]-N-(2-hydroxy-ethyl)-benzenesulfonamide] |
| 203 to 204 °C (dec.) | CC(C)(C)OC(=O)NCCNS(=O)(=O)c1cc(C#Cc2cnn3c(C(F)F)cc(-c4ccc(C(F)(F)F)cc4)nc23)c(F)cc1F [Example 185, (2-{5-[7-Difluoromethyl-5-(4-trifluoromethyl-phenyl)-pyrazolo[1,5-a]pyrimidin-3-ylethynyl]-2,4-difluoro-benzenesulfonylamino}-ethyl)-carbamic acid tert-butyl ester] |
| 261 to 263 °C | CS(=O)(=O)Nc1ccc(C#Cc2cnn3c(C(F)(F)F)cc(-c4ccc(C(F)(F)F)cc4)nc23)cn1 [Example 216, N-{5-[7-Trifluoromethyl-5-(4-trifluoromethyl-phenyl)-pyrazolo[1,5-a]pyrimidin-3-ylethynyl]-pyridin-2-yl}-methanesulfonamide] |
| 292 to 293 °C | NS(=O)(=O)c1cc(C#Cc2cnn3c(C(F)(F)F)cc(-c4ccc(Cl)cc4)nc23)c(F)cc1F [Example 96, 5-[5-(4-Chloro-phenyl)-7-trifluoromethyl-pyrazolo[1,5-a]pyrimidin-3-ylethynyl]-2,4-difluoro-benzenesulfonamide] |
| 253 to 254 °C | CC(=O)N(C(C)=O)c1ncc(C#Cc2cnn3c(C(F)(F)F)cc(-c4ccc(C(F)(F)F)cc4)nc23)cn1 [Example 244, N-Acetyl-N-{5-[7-trifluoromethyl-5-(4-trifluoromethyl-phenyl)-pyrazolo[1,5-a]pyrimidin-3-ylethynyl]-pyrimidin-2-yl}-acetamide] |
| 223 °C | O=S(=O)(c1ccc(C#Cc2cnn3c(C(F)(F)F)cc(-c4ccc(C(F)(F)F)cc4)nc23)s1)N1CCNCC1 [Example 260, 3-[5-(piperazine-1-sulfonyl)-thiophen-2-ylethynyl]-7-trifluoromethyl-5-(4-trifluoromethyl-phenyl)-pyrazolo[1,5-a]pyrimidine] |
| 262 to 264 °C | NS(=O)(=O)c1cccc(C#Cc2cnn3c(C4CC4)cc(-c4ccc(C(F)(F)F)cc4)nc23)c1 [Example 84, 3-[7-Cyclopropyl-5-(4-trifluoromethyl-phenyl)-pyrazolo[1,5-a]pyrimidin-3-ylethynyl]-benzenesulfonamide] |
| 215 to 217 °C | Nc1ccc(C#Cc2cnn3c(CO)cc(-c4ccc(Cl)cc4)nc23)cn1 [Example 298, [3-(6-Amino-pyridin-3-ylethynyl)-5-(4-chloro-phenyl)-pyrazolo[1,5-a]pyrimidin-7-yl]-methanol] |
| 256 to 258 °C | NS(=O)(=O)c1cc(C#Cc2cnn3c(C(F)F)cc(-c4ccc(C(F)(F)F)cc4)nc23)c(F)cc1F [Example 31, 5-[7-Difluoromethyl-5-(4-trifluoromethyl-phenyl)-pyrazolo[1,5-a]pyrimidin-3-ylethynyl]-2,4-difluoro-benzenesulfonamide] |
| 294 °C | Cc1cc(-c2cc(C(F)(F)F)n3ncc(C#Cc4cc(S(N)(=O)=O)c(F)cc4F)c3n2)ccc1Cl [Example 111, 5-[5-(4-Chloro-3-methyl-phenyl)-7-trifluoromethyl-pyrazolo[1,5-a]pyrimidin-3-ylethynyl]-2,4-difluoro-benzenesulfonamide] |
| 246 to 247 °C | NS(=O)(=O)c1cccc(C#Cc2cnn3c(C(F)F)cc(-c4ccc(C(F)(F)F)cc4)nc23)c1 [Example 42, 3-[7-Difluoromethyl-5-(4-trifluoromethyl-phenyl)-pyrazolo[1,5-a]pyrimidin-3-ylethynyl]-benzenesulfonamide] |
| 175 °C | FC(F)(F)c1ccc(-c2cc(C(F)(F)F)n3ncc(C#Cc4cncnc4)c3n2)cc1 [Example 44, 3-Pyrimidin-5-ylethynyl-7-trifluoromethyl-5-(4-trifluoromethyl-phenyl)-pyrazolo[1,5-a]pyrimidine] |
| 178 °C | CN(C)CCNS(=O)(=O)c1ccc(C#Cc2cnn3c(C(F)(F)F)cc(-c4ccc(C(F)(F)F)cc4)nc23)s1 [Example 159, 5-[7-Trifluoromethyl-5-(4-trifluoromethyl-phenyl)-pyrazolo[1,5-a]pyrimidin-3-ylethynyl]-thiophene-2-sulfonic acid (2-dimethylamino-ethyl)-amide] |
| 244 to 246 °C | Cc1cc(-c2ccc(Cl)cc2)nc2c(C#Cc3ccc(N)nc3)cnn12 [Example 295, 5-[5-(4-Chloro-phenyl)-7-methyl-pyrazolo[1,5-a]pyrimidin-3-ylethynyl]-pyridin-2-ylamine] |
| 238 °C | CC(=O)Nc1ccc(C#Cc2cnn3c(C(F)(F)F)cc(-c4ccc(C(F)(F)F)cc4)nc23)cc1 [Example 207, N-{4-[7-Trifluoromethyl-5-(4-trifluoromethyl-phenyl)-pyrazolo[1,5-a]pyrimidin-3-ylethynyl]-phenyl}-acetamide] |
| 272 to 275 °C | NS(=O)(=O)c1cc(C#Cc2cnn3c(C4CC4)cc(-c4ccc(Cl)cc4)nc23)c(F)cc1F [Example 70, 5-[5-(4-Chloro-phenyl)-7-cyclopropyl-pyrazolo[1,5-a]pyrimidin-3-ylethynyl]-2,4-difluoro-benzenesulfonamide] |
| 209 °C | O=S(=O)(Nc1ccncc1)c1ccc(C#Cc2cnn3c(C(F)(F)F)cc(-c4ccc(C(F)(F)F)cc4)nc23)s1 [Example 280, 5-[7-Trifluoromethyl-5-(4-trifluoromethyl-phenyl)-pyrazolo[1,5-a]pyrimidin-3-ylethynyl]-thiophene-2-sulfonic acid pyridin-4-ylamide] |
| 168 °C | CC(C)(C)NS(=O)(=O)c1ccc(C#Cc2cnn3c(C(F)(F)F)cc(-c4cccc(C(F)(F)F)c4)nc23)s1 [Example 117, 5-[7-Trifluoromethyl-5-(3-trifluoromethyl-phenyl)-pyrazolo[1,5-a]pyrimidin-3-ylethynyl]-thiophene-2-sulfonic acid tert-butylamide] |
| 230 to 231 °C | CC(C)(CO)NS(=O)(=O)c1cncc(C#Cc2cnn3c(C4CC4)cc(-c4ccc(Cl)cc4)nc23)c1 [Example 67, 5-[5-(4-Chloro-phenyl)-7-cyclopropyl-pyrazolo[1,5-a]pyrimidin-3-ylethynyl]-pyridine-3-sulfonic acid (2-hydroxy-1,1-dimethyl-ethyl)-amide] |
| 247 to 248 °C | Nc1ccc(C#Cc2cnn3c(C(F)(F)F)cc(-c4ccc(Cl)cc4)nc23)nn1 [Example 247, 6-[5-(4-Chloro-phenyl)-7-trifluoromethyl-pyrazolo[1,5-a]pyrimidin-3-ylethynyl]-pyridazin-3-ylamine] |
